Test results published in US20220298163A1, “BTK INHIBITORS WITH IMPROVED DUAL SELECTIVITY” (BEIGENE, LTD., priority 2017, published 2022).

How the values were obtained:
Tec = target: T1, Tec (Homo sapiens, UniProt P42680); assay: Biochemical kinase selectivity: IC50 determination of Tec; conditions: for IC50: TR-FRET, 280 μM ATP; for Fold of Tec/Btk: ratio of IC50 values
T1 sequence (P42680 1-631): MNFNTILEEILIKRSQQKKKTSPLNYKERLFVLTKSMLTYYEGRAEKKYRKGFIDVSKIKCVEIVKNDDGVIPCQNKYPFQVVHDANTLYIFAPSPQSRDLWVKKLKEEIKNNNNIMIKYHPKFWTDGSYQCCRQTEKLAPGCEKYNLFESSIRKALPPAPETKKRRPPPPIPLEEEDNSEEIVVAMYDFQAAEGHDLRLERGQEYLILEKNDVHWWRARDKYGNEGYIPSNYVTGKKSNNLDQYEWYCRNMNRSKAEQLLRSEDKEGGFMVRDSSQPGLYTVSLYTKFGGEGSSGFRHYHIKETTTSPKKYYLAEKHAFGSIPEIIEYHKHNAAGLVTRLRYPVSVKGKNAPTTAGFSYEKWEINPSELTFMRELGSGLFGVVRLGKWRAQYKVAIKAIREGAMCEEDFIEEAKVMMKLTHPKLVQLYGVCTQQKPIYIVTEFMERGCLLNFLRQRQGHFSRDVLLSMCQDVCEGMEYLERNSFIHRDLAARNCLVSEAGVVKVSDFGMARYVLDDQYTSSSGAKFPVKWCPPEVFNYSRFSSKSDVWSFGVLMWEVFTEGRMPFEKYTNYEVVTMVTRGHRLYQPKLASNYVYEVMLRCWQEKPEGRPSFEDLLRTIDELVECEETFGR

[1] = target: T2, Btk kinase (aa2-659, Carna Biosciences) (Homo sapiens, UniProt Q06187); assay: Btk kinase enzymatic assay (TR-FRET); assay type: biochemical; conditions: for IC50: TR-FRET, 30 μM ATP, compound incubated with kinase 60 minutes
T2 construct: purchased Carna Biosciences
T2 sequence (Q06187 2-659): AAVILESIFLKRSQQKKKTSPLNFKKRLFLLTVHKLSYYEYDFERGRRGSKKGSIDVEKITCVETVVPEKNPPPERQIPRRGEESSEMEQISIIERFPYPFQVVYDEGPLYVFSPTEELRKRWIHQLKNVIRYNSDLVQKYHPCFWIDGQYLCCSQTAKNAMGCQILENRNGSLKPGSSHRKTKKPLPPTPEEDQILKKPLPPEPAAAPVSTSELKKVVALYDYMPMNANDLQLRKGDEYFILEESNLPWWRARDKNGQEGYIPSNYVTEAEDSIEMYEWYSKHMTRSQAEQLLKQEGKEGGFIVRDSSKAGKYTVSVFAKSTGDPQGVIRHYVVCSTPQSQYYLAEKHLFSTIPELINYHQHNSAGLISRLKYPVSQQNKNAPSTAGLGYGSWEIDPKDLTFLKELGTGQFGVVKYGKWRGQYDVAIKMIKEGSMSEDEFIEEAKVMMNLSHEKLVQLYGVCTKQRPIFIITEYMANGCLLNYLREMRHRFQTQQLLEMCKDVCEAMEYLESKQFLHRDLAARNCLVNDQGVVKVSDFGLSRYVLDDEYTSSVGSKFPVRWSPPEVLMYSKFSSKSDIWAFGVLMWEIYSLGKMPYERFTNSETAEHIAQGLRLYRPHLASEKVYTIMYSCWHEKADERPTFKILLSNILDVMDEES

| Compound | IC50 (Tec) [nM] | Fold of Tec/Btk (Tec) [fold] | IC50 [1] [nM] | affinity / inhibitory activity for Btk (in words) [1] |
| --- | --- | --- | --- | --- |
| C=CC(=O)N1CCC(C2CCNc3c(C(N)=O)c(-c4ccccc4)nn32)CC1 (stereo not drawn) [Example 144, reference compound] | 491 | 3.5 | – | – |
| C=CC(=O)N1CCC(C2CCNc3c(C(N)=O)c(-c4cc(OC)cc(OC)c4)nn32)CC1 (stereo not drawn) [Example A9, 7-(1-acryloylpiperidin-4-yl)-2-(3,5-dimethoxyphenyl)-4,5,6,7-tetrahydropyrazolo[1,5-a]pyrimidine-3-carboxamide] | – | – | 41 | – |
| C=CC(=O)N1CCC(C2CCNc3c(C(N)=O)c(-c4cc(OC)c(-c5ccccc5)c(OC)c4)nn32)CC1 (stereo not drawn) [Example A10, 7-(1-acryloylpiperidin-4-yl)-2-(2,6-dimethoxy-[1,1′-biphenyl]-4-yl)-4,5,6,7-tetrahydropyrazolo[1,5-a]pyrimidine-3-carboxamide] | – | – | 51 | – |
| C=CC(=O)N1CCC(C2CCNc3c(C(N)=O)c(-c4cc(OCC)c(C)c(OCC)c4)nn32)CC1 (stereo not drawn) [Example A13, 7-(1-acryloylpiperidin-4-yl)-2-(3,5-diethoxy-4-methylphenyl)-4,5,6,7-tetrahydropyrazolo[1,5-a]pyrimidine-3-carboxamide] | – | – | > 100 | – |
| C=CC(=O)N1CCC(C2CCNc3c(C(N)=O)c(-c4cc(OC)c(OC)c(OC)c4)nn32)CC1 (stereo not drawn) [Example A14, 7-(1-acryloylpiperidin-4-yl)-2-(3,4,5-trimethoxyphenyl)-4,5,6,7-tetrahydropyrazolo[1,5-a]pyrimidine-3-carboxamide] | > 1000 | – | – | – |
| C=CC(=O)N1CCC(C2CCNc3c(C(N)=O)c(-c4cc(Cl)c(OC)c(Cl)c4)nn32)CC1 (stereo not drawn) [Example A15, 7-(1-acryloylpiperidin-4-yl)-2-(3,5-dichloro-4-methoxyphenyl)-4,5,6,7-tetrahydropyrazolo[1,5-a]pyrimidine-3-carboxamide] | 1000 | 50 | 20 | poor affinity for Btk |
| C=CC(=O)N1CCC(C2CCNc3c(C(N)=O)c(-c4cc(Cl)c(C5CC5)c(Cl)c4)nn32)CC1 (stereo not drawn) [Example A24, 7-(1-acryloylpiperidin-4-yl)-2-(3,5-dichloro-4-cyclopropylphenyl)-4,5,6,7-tetrahydropyrazolo[1,5-a]pyrimidine-3-carboxamide] | – | – | 28 | – |
| C=CC(=O)N1CCC(C2CCNc3c(C(N)=O)c(-c4cc(Cl)c(Br)c(OC(F)(F)F)c4)nn32)CC1 (stereo not drawn) [Example A26, 7-(1-acryloylpiperidin-4-yl)-2-(4-bromo-3-chloro-5-(trifluoromethoxy)phenyl)-4,5,6,7-tetrahydropyrazolo[1,5-a]pyrimidine-3-carboxamide] | – | – | 41 | – |
| C=CC(=O)N1CCC(C2CCNc3c(C(N)=O)c(-c4cc(OC)c(-c5cc[nH]n5)c(OC)c4)nn32)CC1 (stereo not drawn) [Example A27, 7-(1-acryloylpiperidin-4-yl)-2-(3,5-dimethoxy-4-(1H-pyrazol-3-yl)phenyl)-4,5,6,7-tetrahydropyrazolo[1,5-a]pyrimidine-3-carboxamide] | > 1000 | – | 18 | – |
| C=CC(=O)N1CCC(C2CCNc3c(C(N)=O)c(-c4cc(OC)c(-c5ccsc5)c(OC)c4)nn32)CC1 (stereo not drawn) [Example A28, 7-(1-acryloylpiperidin-4-yl)-2-(3,5-dimethoxy-4-(thiophen-3-yl)phenyl)-4,5,6,7-tetrahydropyrazolo[1,5-a]pyrimidine-3-carboxamide] | 369 | 23 | 16 | – |
| C=CC(=O)N1CCC(C2CCNc3c(C(N)=O)c(-c4cc(C)c(C5CC5)c(C)c4)nn32)CC1 (stereo not drawn) [Example A29, 7-(1-acryloylpiperidin-4-yl)-2-(4-cyclopropyl-3,5-dimethylphenyl)-4,5,6,7-tetrahydropyrazolo[1,5-a]pyrimidine-3-carboxamide] | > 1000 | – | 16 | – |
| C=CC(=O)N1CCC(C2CCNc3c(C(N)=O)c(-c4cc(C)cc(C)c4)nn32)CC1 (stereo not drawn) [Example A30, 7-(1-acryloylpiperidin-4-yl)-2-(3,5-dimethylphenyl)-4,5,6,7-tetrahydropyrazolo[1,5-a]pyrimidine-3-carboxamide] | > 1000 | – | 53 | – |
| C=CC(=O)N1CCC(C2CCNc3c(C(N)=O)c(-c4cc(OC)c(-c5c(C)noc5C)c(OC)c4)nn32)CC1 (stereo not drawn) [Example A31, 7-(1-acryloylpiperidin-4-yl)-2-(4-(3,5-dimethylisoxazol-4-yl)-3-dimethoxyphenyl)-4,5,6,7-tetrahydropyrazolo[1,5-a]pyrimidine-3-carboxamide] | – | – | > 100 | – |
| C=CC(=O)N1CCC(C2CCNc3c(C(N)=O)c(-c4cc(OC)c(C5CCOCC5)c(OC)c4)nn32)CC1 (stereo not drawn) [Example A32, 7-(1-acryloylpiperidin-4-yl)-2-(3,5-dimethoxy-4-(tetrahydro-2H-pyran-4-yl)phenyl)-4,5,6,7-tetrahydropyrazolo[1,5-a]pyrimidine-3-carboxamide] | – | – | 52 | – |
| C=CC(=O)N1CCC(C2CCNc3c(C(N)=O)c(-c4cc(OC)c(C5=CCCCC5)c(OC)c4)nn32)CC1 (stereo not drawn) [Example A40, 7-(1-acryloylpiperidin-4-yl)-2-(2,6-dimethoxy-2′,3′,4′,5′-tetrahydro-[1,1′-biphenyl]-4-yl)-4,5,6,7-tetrahydropyrazolo[1,5-a]pyrimidine-3-carboxamide] | 253 | 23 | 11 | – |
| C=CC(=O)N1CCC(C2CCNc3c(C(N)=O)c(-c4cc(Cl)c(C5CC5)c(OCC)c4)nn32)CC1 (stereo not drawn) [Example A48, 7-(1-acryloylpiperidin-4-yl)-2-(3-chloro-4-cyclopropyl-5-ethoxyphenyl)-4,5,6,7-tetrahydropyrazolo[1,5-a]pyrimidine-3-carboxamide] | – | – | 16 | – |
| C=CC(=O)N1CCC(C2CCNc3c(C(N)=O)c(-c4cc(Cl)c(C)c(OCC)c4)nn32)CC1 (stereo not drawn) [Example A49, 7-(1-acryloylpiperidin-4-yl)-2-(3-chloro-5-ethoxy-4-methylphenyl)-4,5,6,7-tetrahydropyrazolo[1,5-a]pyrimidine-3-carboxamide] | – | – | 18 | – |
| C=CC(=O)N1CCC(C2CCNc3c(C(N)=O)c(-c4cc(OC)c(C=C)c(OC)c4)nn32)CC1 (stereo not drawn) [Example A51, 7-(1-acryloylpiperidin-4-yl)-2-(3,5-dimethoxy-4-vinylphenyl)-4,5,6,7-tetrahydropyrazolo[1,5-a]pyrimidine-3-carboxamide] | 136 | – | – | – |
| C=CC(=O)N1CC(C2CCNc3c(C(N)=O)c(-c4cc(Cl)c(C)c(Cl)c4)nn32)C1 (stereo not drawn) [Example B1, 7-(1-acryloylazetidin-3-yl)-2-(3,5-dichloro-4-methylphenyl)-4,5,6,7-tetrahydropyrazolo[1,5-a]pyrimidine-3-carboxamide] | – | – | 13 | – |
| C=CC(=O)N1CC2CNc3c(C(N)=O)c(-c4cc(OC)c(OC)c(OC)c4)nn3C2C1 (stereo not drawn) [Example C2, 7-acryloyl-2-(3,4,5-trimethoxyphenyl)-5,5a,6,7,8,8a-hexahydro-4H-pyrazolo[1,5-a]pyrrolo[3,4-e]pyrimidine-3-carboxamide] | – | – | 34 | – |
| C=CC(=O)N1CCC2C(CNc3c(C(N)=O)c(-c4cc(OC)c(C)c(OC)c4)nn32)C1 (stereo not drawn) [Example D1, 7-acryloyl-2-(3,5-dimethoxy-4-methylphenyl)-4,5,5a,6,7,8,9,9a-octahydropyrazolo[1,5-a]pyrido[3,4-e]pyrimidine-3-carboxamide] | – | – | 10 | – |
| C=CC(=O)N1CCC2Nc3c(C(N)=O)c(-c4cc(OC)c(C)c(OC)c4)nn3CC2C1 (stereo not drawn) [Example D2, 7-acryloyl-2-(3,5-dimethoxy-4-methylphenyl)-4,4a,5,6,7,8,8a,9-octahydropyrazolo[1,5-a]pyrido[4,3-d]pyrimidine-3-carboxamide] | > 1000 | – | 63 | – |
| C=CC(=O)NCC1CCNc2c(C(N)=O)c(-c3cc(OC)c(C)c(OC)c3)nn21 (stereo not drawn) [Example E1, 7-(acrylamidomethyl)-2-(3,5-dimethoxy-4-methylphenyl)-4,5,6,7-tetrahydropyrazolo[1,5-a]pyrimidine-3-carboxamide] | – | – | 33 | – |
| C=CC(=O)N1CCC2(CC1)CC(C1CCNc3c(C(N)=O)c(-c4cc(OC)c(C)c(OC)c4)nn31)C2 (stereo not drawn) [Example F1, 7-(7-acryloyl-7-azaspiro[3.5]nonan-2-yl)-2-(3,5-dimethoxy-4-methylphenyl)-4,5,6,7-tetrahydropyrazolo[1,5-a]pyrimidine-3-carboxamide] | – | – | > 100 | – |
| C=CC(=O)N1CC2CCC(C1)C2C1CCNc2c(C(N)=O)c(-c3cc(OC)c(C)c(OC)c3)nn21 (stereo not drawn) [Example G1, 7-(3-acryloyl-3-azabicyclo[3.2.1]octan-8-yl)-2-(3,5-dimethoxy-4-methylphenyl)-4,5,6,7-tetrahydropyrazolo[1,5-a]pyrimidine-3-carboxamide] | – | – | 12 | – |
| C=CC(=O)N1CC2(CC(C3CCNc4c(C(N)=O)c(-c5cc(OC)c(C)c(OC)c5)nn43)C2)C1 (stereo not drawn) [Example H1, 7-(2-acryloyl-2-azaspiro[3.3]heptan-6-yl)-2-(3,5-dimethoxy-4-methylphenyl)-4,5,6,7-tetrahydropyrazolo[1,5-a]pyrimidine-3-carboxamide] | – | – | 35 | – |
| C=CC(=O)N1CCC(C2CCNc3c(C(N)=O)c(-c4ccc(Cl)cc4)nn32)CC1 (stereo not drawn) [reference compound] | – | – | 22 | – |
